Measured values taken from patent publication US20090170846A1, “INHIBITORS OF THE HIV INTEGRASE ENZYME” (Pfizer Inc, priority 2005, published 2009).
Where two headings read alike, the source gives them in different places.

How the values were obtained:
[1] = target: T1, Full-length wild type HIV-1 integrase (SF1) (Human immunodeficiency virus type 1 group M subtype B, UniProt P04585); experiment: Integrase strand-transfer scintillation proximity assay; assay type: biochemical
T1 construct: made in house; host or cells: E. coli BL21 (DE3)
Description: Integrase Strand-Transfer Scintillation Proximity Assay
Oligonucleotides: Oligonucleotide #1-5′-(biotin)[…]-3′ (SEQ ID NO: 1) and oligonucleotide #2-5′-[…]-3′ (SEQ ID NO: 2), were synthesized by TriLink BioTechnologies, Inc. (San Diego, Calif.). The annealed product represents preprocessed viral ds-DNA derived from the LTR U5 sequence of the viral genome. A ds-DNA control to test for non-specific interactions was made using a 3′ di-deoxy derivative of oligonucleotide #1 annealed to oligonucleotide #2. The CA overhang at the 5′ end of the non-biotinylated strand of the ds-DNA was created artificially by using a complimentary DNA oligonucleotide shortened by 2 base pairs. This configuration eliminates the requisite 3′ processing step of the integrase enzyme prior to the strand-transfer mechanism.
Host ds-DNA was prepared as an unlabeled and [^3H]-thymidine labeled product from annealed oligonucleotide #3-5-[…]-3′ (SEQ ID NO: 3), and oligonucleotide #4-1-5′-[…]-3′ (SEQ ID NO: 4), both synthesized by TriLink BioTechnologies, Inc. (San Diego, Calif.). The annealed product had overhanging 3′ ends of poly(dA). Host DNA was custom radiolabeled by PerkinElmer Life Sciences Inc. (Boston, Mass.) using an enzymatic method with a 12/1 ratio of [methyl-^3H]dTTP/cold ds-DNA to yield 5′-blunt end ds-DNA with a specific activity of >900 Ci/mmol. The radiolabeled product was purified using a NENSORB cartridge and stored in stabilized aqueous solution (PerkinElmer). The final radiolabeled product had six [^3H]-thymidine nucleotides at both 5′ ends of the host ds-DNA.
Reagents: Streptavidin-coated polyvinyltoluene (PVT) SPA beads were purchased from Amersham Biosciences (Piscataway, N.J.). Cesium chloride was purchased from Shelton Scientific, Inc. (Shelton, Conn.). White, polystyrene, flat-bottom, non-binding surface, 96-well plates were purchased from Corning. All other buffer components were purchased from Sigma (St. Louis, Mo.) unless otherwise indicated.
Enzyme Construction Full-length wild type HIV-1 integrase (SF1) sequence (amino acids 1-289) was constructed in a pET24a vector (Novagen, Madison, Wis.). The construct was confirmed through DNA sequencing.
Enzyme Purification Full length wild-type HIV Integrase was expressed in E. coli BL21 (DE3) cells and induced with 1 mM isopropyl-1 thio-β-D-galactopyranoside (IPTG) when cells reached an optical density between 0.8-1.0 at 600 nm. Cells were lysed by microfluidation in 50 mM HEPES pH 7.0, 75 mM NaCl, 5 mM DTT, 1 mM 4-(2-Aminoethyl)benzenesulfonylfluoride HCl (AEBSF). Lysate was then centrifuged 20 minutes at 11 k rpm in GSA rotor in Sorvall RC-5B at 4° C. Supernant was discarded and pellet resuspended in 50 mM HEPES pH 7.0, 750 mM NaCl, 5 mM DTT, 1 mM AEBSF and homogenized in a 40 mL Dounce homogenizer for 20 minutes on ice. Homogenate was then centrifuged 20 minutes at 11 k rpm in SS34 rotor in Sorvall RC-5B at 4° C. Supernant was discarded and pellet resuspended in 50 mM HEPES pH 7.0, 750 mM NaCl, 25 mM CHAPS, 5 mM DTT, 1 mM AEBSF. Preparation was then centrifuged 20 minutes at 11 k rpm in SS34 rotor in Sorvall RC-5B at 4° C.
Supernant was then diluted 1:1 with 50 mM HEPES pH 7.0, 25 mM CHAPS, 1 mM DTT, 1 mM AEBSF and loaded onto a Q-Sepharose column pre-equilibrated with 50 mM HEPES, pH 7.0, 375 mM NaCl, 25 mM CHAPS, 1 mM DTT, 1 mM AEBSF. The flow through peak was collected and NaCl diluted to 0.1 M with 50 mM HEPES pH 7.0, 25 mM CHAPS, 1 mM DTT, 0.5 mM AEBSF and loaded onto a SP-Sepharose column pre-equilibrated with 50 mM HEPES pH 7.0, 100 mM NaCl, 25 mM CHAPS, 1 mM DTT, 0.5 mM AEBSF. After washing the column with the equilibration buffer, a 100 to 400 mM NaCl gradient was run. The eluted integrase was concentrated and run on a S-300 gel diffusion column using 50 mM HEPES pH 7.0, 500 mM NaCl, 25 mM CHAPS, 1 mM DTT, 0.5 mM AEBSF. The peak from this column was concentrated to 0.76 mg/mL and stored at −70° C. and later used for strand transfer assays. […]

[2] = tested on: RF strain of HIV-1 in CEM-SS cells; experiment: HIV-1 cell protection assay (XTT dye reduction); assay type: cell-based
Description: HIV-1 Cell Protection Assay
The antiviral activities of potential modulator compounds (test compounds) were determined in HIV-1 cell protection assays using the RF strain of HIV-1, CEM-SS cells, and the XTT dye reduction method (Weislow, O, S. et al., J. Natl. Cancer Inst 81: 577-586 (1989)). Subject cells were infected with HIV-1 RF virus at an moi of to affect about a 90% kill (for example, an moi in the range of from about 0.025 to about 0.819) or mock infected with medium only and added at 2×10^4 cells per well, with the addition of approximately 200 μL of medium, into 96 well plates containing half-log dilutions of test compounds. Six days later, 50 μl of XTT solution (1 mg/ml XTT tetrazolium and 20 nM phenazine methosulfate) were added to the wells and the plates were reincubated for four hours. Viability, as determined by the amount of XTT formazan produced, was quantified spectrophotometrically by absorbance at 450 nm.
Data from CPE assays were expressed as the percent of formazan produced in compound-treated cells compared to formazan produced in wells of uninfected, compound-free cells. The fifty percent effective concentration (EC50) was calculated as the concentration of compound that affected an increase in the percentage of formazan production in infected, compound-treated cells to 50% of that produced by uninfected, compound-free cells. The 50% cytotoxicity concentration (CC50) was calculated as the concentration of compound that decreased the percentage of formazan produced in uninfected, compound-treated cells to 50% of that produced in uninfected, compound-free cells. The therapeutic index was calculated by dividing the cytotoxicity (CC50) by the antiviral activity (EC50).

[3] = integrase strand-transfer SPA, read-out: IC50
[4] = Human immunodeficiency virus 1, CEM-SS, 144 h
[5] = Human immunodeficiency virus 1, 144 h, HIV-1 RF, CEM-SS cells, XTT, six days, read-out: EC50

SMILES	IC50 [1, 3] [nM]	EC50 [2, 4] [nM]	EC50 [2, 5] [nM]	IC50 [1] [nM]
Cc1c(CNC(=O)c2cn(Cc3ccc(F)cc3)c3cnc(C(=O)NO)cc23)cnn1C [Example 28, N~3~-[(1,5-dimethyl-1H-pyrazol-4-yl)methyl]-1-(4-fluorobenzyl)-N~5~- hydroxy-1H-pyrrolo[2,3-c]pyridine-3,5-dicarboxamide]	46	100	–	–
O=C(NO)c1cc2c(C(=O)NCCCN3CCCC3=O)cn(Cc3ccc(F)cc3)c2cn1 [Example 29, 1-(4-fluorobenzyl)-N~5~- hydroxy-N~3~-[3-(2-oxopyrrolidin-1-yl)propyl]-1H-pyrrolo[2,3-c]pyridine-3,5-dicarboxamide]	70	130	–	–
O=C(NO)c1cc2c(C(=O)N3CCCC(CO)C3)cn(Cc3ccc(F)cc3)c2cn1 (centres unmarked) [Example 30, 1-(4-fluorobenzyl)-N-hydroxy-3-{[3-(hydroxymethyl)piperidin-1-yl]carbonyl}-1H-pyrrolo[2,3-c]pyridine-5-carboxamide]	72	110	–	–
CCN1CCCC1CNC(=O)c1cn(Cc2ccc(F)cc2)c2cnc(C(=O)NO)cc12 (centres unmarked) [Example 31, N~3~-[(1-ethylpyrrolidin-2-yl)methyl]-1-(4-fluorobenzyl)-N~5~- hydroxy-1H-pryyolo[2,3-c]pyridine-3,5-dicarboxamide]	141	200	–	–
CN(O)C(=O)c1cc2c(C(=O)NCCN3CCOCC3)cn(Cc3ccc(F)cc3)c2cn1 [Example 32, 1-(4-fluorobenzyl)-N~5~- hydroxy-N~5~-methyl-N~3~-(2-morpholin-4-ylethyl)-1H-pyrrolo[2,3-c]pyridine-3,5-dicarboxamide]	503	210	–	–
CN(O)C(=O)c1cc2c(C(=O)N3CCCC(CO)C3)cn(Cc3ccc(F)cc3)c2cn1 (centres unmarked) [Example 33]	320	140	–	–
CN(C)S(=O)(=O)c1cn(Cc2ccc(F)cc2)c2cnc(C(=O)NO)cc12 [Example 34]	136	–	47	–
CN(O)C(=O)c1cc2c(S(=O)(=O)N(C)C)cn(Cc3ccc(F)cc3)c2cn1 [Example 35, 3-[(dimethylamino)sulfonyl]-1-(4-fluorobenzyl)-N-hydroxy-N-methyl-1H-pyrrolo[2,3-c]pyridine-5-carboxamide]	1030	–	370	–
NC(=O)[C@@H]1CCCN1S(=O)(=O)c1cn(Cc2ccc(F)cc2F)c2cnc(C(=O)NO)cc12 [Example 36, 3-{[(2S)-2-(aminocarbonyl)pyrrolidin-1-yl]sulfonyl}-1-(2,4-difluorobenzyl)-N-hydroxy-1H-pyrrolo[2,3-c]pyridine-5-carboxamide]	197	–	340	–
O=C(NO)c1cc2c(S(=O)(=O)NCCN3CCOCC3)cn(Cc3ccc(F)cc3F)c2cn1 [Example 37, 1-(2,4-difluorobenzyl)-N-hydroxy-3-{[(2-morpholin-4-ylethyl)amino]sulfonyl}-1H-pyrrolo[2,3-c]pyridine-5-carboxamide]	161	–	490	–
O=C1CN(S(=O)(=O)c2cn(Cc3ccc(F)cc3F)c3cnc(C(=O)NO)cc23)CCN1 [Example 38, 1-(2,4-difluorobenzyl)-N-hydroxy-3-[(3-oxopiperazin-1-yl)sulfonyl]-1H-pyrrolo[2,3-c]pyridine-5-carboxamide]	265	–	8000	–
CONC(=O)c1cc2c(S(=O)(=O)N3CCNC(=O)C3)cn(Cc3ccc(F)cc3F)c2cn1 [Example 39, 1-(2,4-difluorobenzyl)-N-methoxy-3-[(3-oxopiperazin-1-yl)sulfonyl]-1H-pyrrolo[2,3-c]pyridine-5-carboxamide]	299	–	210	–
CONC(=O)c1cc2c(S(=O)(=O)NCCN3CCOCC3)cn(Cc3ccc(F)cc3F)c2cn1 [Example 40, 1-(2,4-difluorobenzyl)-N-methoxy-3-{[(2-morpholin-4-ylethyl)amino]sulfonyl}-1H-pyrrolo[2,3-c]pyridine-5-carboxamide]	760	–	52	–
CN(O)C(=O)c1cc2c(S(=O)(=O)N3CCNC(=O)C3)cn(Cc3ccc(F)cc3F)c2cn1 [Example 41, 1-(2,4-difluorobenzyl)-N-hydroxy-N-methyl-3-[(3-oxopiperazin-1-yl)sulfonyl]-1H-pyrrolo[2,3-c]pyridine-5-carboxamide]	–	–	3300	1150
CN(O)C(=O)c1cc2c(S(=O)(=O)N3CCC[C@H]3C(N)=O)cn(Cc3ccc(F)cc3F)c2cn1 [Example 42, 3-{[(2S)-2-(aminocarbonyl)pyrrolidin-1-yl]sulfonyl)-1-(2,4-difluorobenzyl)-N-hydroxy-N-methyl-1H-pyrrolo[2,3-c]pyridine-5-carboxamide]	–	–	6300	1050
CN(O)C(=O)c1cc2c(C(=O)NC[C@@H]3CCCO3)cn(Cc3ccc(F)cc3)c2cn1 [Example 43, 1-(4-fluorobenzyl)-N5-hydroxy-N5-methyl-N3-[(2S)-tetrahydrofuran-2-ylmethyl]-1H-pyrrolo[2,3-c]pyridine-3,5-dicarboxamide]	221	80	–	–
CC(C)NC(=O)c1cn(Cc2ccc(F)cc2)c2cnc(C(=O)N(C)O)cc12 [Example 44, 1-(4-fluorobenzyl)-N5-hydroxy-N3-isopropyl-N5-methyl-1H-pyrrolo[2,3-c]pyridine-3,5-dicarboxamide]	205	70	–	–
CN(O)C(=O)c1cc2c(C(=O)NCC(F)F)cn(Cc3ccc(F)cc3)c2cn1 [Example 45, N3-(2,2-difluoroethyl)-1-(4-fluorobenzyl)-N5-hydroxy-N5-methyl-1H-pyrrolo[2,3-c]pyridine-3,5-dicarboxamide]	243	39	–	–
CONC(=O)c1cc2c(C(=O)N3CCC[C@@H]3CO)cn(Cc3ccc(F)cc3)c2cn1 [Example 46]	895	56	–	–
